Data set [1] is classed as physicochemical. Particulars: pH 6.
The nature of data set [2]: Hygroscopicity study: moisture sorption by Dynamic Vapour Sorption (DVS). Conditions: 0 to 75% RH, 30° C. Format: physicochemical. The procedure: The moisture sorptions of the three known polymorphs (α-form, β-form and present invention) of the hemisulphate of 3-(N-methyl-2(R)-pyrrolidinylmethyl)-5-(2-phenylsulphonylethyl)-1H-indole were determined using a Dynamic Vapour Sorption (DVS) Automated Sorption Analyser Model DVS-1 manufactured by Surface Measurements Systems Ltd, UK. Each polymorph was analysed by accurately weighing approximately 25 mg into the sample pan which was then exposed to humidities in the range 0 to 75% RH. The analysis temperature was 30° C. with a nitrogen flow rate of 200 cm^3 min^−1.

Data set [3] in a line: Stability study: polymorphic form re-examined by PXRD and DSC. Type of data set: physicochemical. Conditions: stored for seven months under ambient conditions.
A short description of data set [4]: Compression studies in an IR bench press. Type of data set: physicochemical. Conditions: 5 tonnes for 1 minute, 13 mm punch and die set.
For data set [5] the following is noted: as described in European Patent 0776323; cited from earlier work.
[6] abbreviates: listed as hemisulphate polymorph of the present invention.

Converted amounts (≈) assume the structure as drawn. Counter-ions that a name gives are not always drawn.

For orientation: solubility means how much of the substance goes into solution per volume. Compound `CN1CCC[C@@H]1Cc1c[nH]c2ccc(CCS(=O)(=O)c3ccccc3)cc12` [hydrobromide, 3-(N-methyl-2(R)-pyrrolidinylmethyl)-5-(2-phenylsulphonylethyl)-1H-indole, reference compound] yielded a solubility in data set [1] of 2.90 mg/mL.

Regarding `CN1CCC[C@@H]1Cc1c[nH]c2ccc(CCS(=O)(=O)c3ccccc3)cc12` [polymorph of the invention, 3-(N-methyl-2(R)-pyrrolidinylmethyl)-5-(2-phenylsulphonylethyl)-1H-indole], the solubility in data set [1] is 478 mg/mL (≈ 1250 mM). Further, the “hygroscopicity (moisture sorption)” value in data set [2] is reported as “markedly less hygroscopic than either the α- or β-form”; in data set [2] (setting [6]) it was “negligible hygroscopicity”. The “polymorphic stability (PXRD and DSC)” value in data set [3] is listed as “totally unchanged”; in data set [3] (setting [6]), “no change in its polymorphic form”. Also, the “colour change and punch filming upon compression” value is “no significant colour change and no evidence of punch filming” in data set [4]; “no significant colour change or punch filming” in data set [4] (setting [6]).

With `CN1CCC[C@@H]1Cc1c[nH]c2ccc(CCS(=O)(=O)c3ccccc3)cc12` [α-polymorph, 3-(N-methyl-2(R)-pyrrolidinylmethyl)-5-(2-phenylsulphonylethyl)-1H-indole], in data set [5], the “colour change and punch filming during tabletting” value is “giving rise to colour change and punch filming”; the hygroscopicity entry is listed as “hygroscopic”; the polymorphic stability result is “polymorphically unstable”.
